Legend:
IsdH(Y642A) = target: T1, IsdH(Y642A) (Staphylococcus aureus, UniProt Q931P4, Y642A); type: physicochemical; details: haemin bound to IsdH (Y642A)
T1 sequence (Q931P4 41-891 Y642A): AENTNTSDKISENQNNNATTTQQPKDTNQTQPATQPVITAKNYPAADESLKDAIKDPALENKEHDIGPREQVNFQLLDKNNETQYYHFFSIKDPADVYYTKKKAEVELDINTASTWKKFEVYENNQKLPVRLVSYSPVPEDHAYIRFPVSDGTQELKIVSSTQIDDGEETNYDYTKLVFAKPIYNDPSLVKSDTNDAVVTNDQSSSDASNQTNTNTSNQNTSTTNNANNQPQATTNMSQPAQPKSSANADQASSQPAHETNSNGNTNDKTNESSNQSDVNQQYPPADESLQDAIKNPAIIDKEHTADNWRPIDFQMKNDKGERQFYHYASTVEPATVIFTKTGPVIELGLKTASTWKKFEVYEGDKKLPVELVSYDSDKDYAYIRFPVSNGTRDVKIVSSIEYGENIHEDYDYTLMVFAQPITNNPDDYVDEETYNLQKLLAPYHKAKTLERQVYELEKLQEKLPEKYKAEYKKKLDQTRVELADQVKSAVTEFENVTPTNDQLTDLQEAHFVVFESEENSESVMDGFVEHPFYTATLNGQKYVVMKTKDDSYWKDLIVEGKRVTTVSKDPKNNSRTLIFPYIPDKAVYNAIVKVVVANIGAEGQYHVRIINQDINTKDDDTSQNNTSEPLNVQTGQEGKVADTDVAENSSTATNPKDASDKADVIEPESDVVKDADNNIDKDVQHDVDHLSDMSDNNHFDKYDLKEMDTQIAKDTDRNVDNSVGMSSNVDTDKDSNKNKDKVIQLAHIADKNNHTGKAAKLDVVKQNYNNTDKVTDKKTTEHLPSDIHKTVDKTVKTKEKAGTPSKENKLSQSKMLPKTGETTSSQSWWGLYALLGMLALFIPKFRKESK
Experimental: Supplementary Figure 16. Acid-alkaline transition in UV-vis spectra of various haem binding proteins. (Top) UV-visible spectra (units of wavelength are nm) used to generate the pH titration curves shown in Figure 2h and in the bottom panel. (Bottom) Acid-alkaline titration of 5 µM haemin in presence of 7 µM IsdH, 5 µM IsdB, 7 µM IsdH(Y642A) and 7 µM p22HBP. All proteins are in holo form. See Fig 2h legend for buffer conditions. Absorbance A600–A650 values are plotted except for IsdH and IsdB, for which A630–A600 is plotted (to avoid negative values). […]

HusA Y164A = target: T2, HusA Y164A (Porphyromonas gingivalis, UniProt Q7MSY3, Y164A); experiment: Tryptophan fluorescence quenching assay, HusA mutant Y164A; type: binding
T2 sequence (Q7MSY3 24-218 Y164A): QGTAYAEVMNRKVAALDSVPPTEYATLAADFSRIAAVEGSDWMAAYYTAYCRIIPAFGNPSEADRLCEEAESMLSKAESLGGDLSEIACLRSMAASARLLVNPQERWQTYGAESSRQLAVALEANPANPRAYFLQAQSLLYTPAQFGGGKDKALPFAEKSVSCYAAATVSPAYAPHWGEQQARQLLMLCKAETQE
Experimental: The quenching of intrinsic tryptophan fluorescence of HusA upon porphyrin additions was measured using a Carey Eclipse Fluorescence Spectrophotometer (Agilent) set to a photo multiplier effect (PME) of 850. A 5-mm path length quartz cuvette was used and all spectra were acquired at room temperature. Excitation was set to 295 nm and emission was measured from 300 nm to 500 nm using excitation/emission slit widths of 5 nm. Binding assays were performed at a protein concentration of 1 μM HusA in standard buffer at a working volume of 0.5 mL. […] The fluorescence quenching of HusA by PPIX was investigated in a similar manner with the following difference: the fluorescence intensities of ten 1 μM HusA samples were measured each with increasing amounts of PPIX after a 2-h incubation period to allow equilibrium to be reached. See Supplementary Methods for correction for inner filter effect and curve fitting. […]
Correction of inner filter effect and curve fitting in tryptophan fluorescence quenching assays The concentration of NATA was chosen such that the raw fluorescence intensity was similar to the 10 uM concentrations of HusA and mutants used. […] Fluorescence intensity was scaled with respect to the starting florescence and corrected for the inner filter effect. Fluorescence at 335 nm was used to fit binding curves. […]

[1] = system: P. gingivalis wild-type W83; experiment: P8 growth inhibition under iron restriction (100 µM dipyridyl); type: cell-based, Porphyromonas gingivalis; details: P8 at 1 µM (below the MIC)
From the text: Fig. 5 A prototype DPIX-conjugated antibiotic binds HusA and inhibits P. gingivalis. a The chemical structure of the deuteroporphyrin-lysine-metronidazole adduct, P8. b NMR signal intensity changes (black) and ^1H^N CSPs (red/green) for HusA upon addition of P8 (measured from ^15N-HSQC spectra shown in Supplementary Figure 21). c In silico docking of P8 to the energy minimized structure of HusA (conformer set 1), with residues experiencing NMR signal loss (orange) or CSPs (red/green) mapped to the structure (colouring as described in Fig. 2d). d Scaled and corrected fluorescence at 335 nm during titration of 1 μM of HusA with increasing concentrations of P8, haemin or DPIX. e Comparison of P8 inhibitory effect towards P. gingivalis wild-type W83 and husA mutants using checkerboard analysis. Serial dilutions of antibiotics (horizontal axis) were applied to a 96-well plate with different P. gingivalis strains (vertical axis). Serial dilutions of DPIX were also supplemented into wild-type W83 group to evaluate the competitive effect against P8. Absorption at OD600 of each well was recorded after 24 h of incubation. The OD600 of each strain grown in the absence of antibiotics was defined as 100% growth, which was applied to normalise the reading collected from other wells. […] Recovered bacteria were determined by CFU count. […]

SMILES	pKa of acid-alkaline transition (IsdH(Y642A))	reduction of haemin affinity compared to wild-type (HusA Y164A)	susceptibility of W83 under iron restriction [1]
C=CC1=C(C)c2cc3[nH]c(cc4nc(cc5[nH]c(cc1n2)c(C)c5CCC(=O)O)C(CCC(=O)O)=C4C)c(C)c3C=C.[Fe+3] [haemin]	5.9	> 50%	
CC1=Cc2cc3[nH]c(cc4nc(cc5[nH]c(cc1n2)cc5C)C(C)=C4CCC(=O)N[C@@H](CCCCNC(=O)OC(C)(C)C)C(=O)NCCn1c([N+](=O)[O-])cnc1C)c(CCC(=O)O)c3C [P8]			susceptible
